Measured values taken from patent US9302999B2, “Substituted triazoles as herbicides” (E. I. DU PONT DE NEMOURS AND COMPANY, priority 2012, dated 2016).

Tests used:
Format in all cases: in vivo
[1] = tested on: barnyardgrass (Echinochloa crus-galli); test: Test A pre-/postemergence: barnyardgrass
Outline: (§1)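 Compounds, formulated with surfactant in non-phytotoxic solvent, were applied as a directed soil spray preemergence and as postemergence sprays to 2–10 cm, one- to two-leaf seedlings grown in loam soil blended with sand; visual injury, 0–100, assessed ~10 days post-treatment against untreated controls.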

[2] = tested on: pigweed (Amaranthus retroflexus); test: Test A pre-/postemergence: pigweed
Outline: as §1

[3] = tested on: wheat (Triticum aestivum); test: Test A pre-/postemergence: wheat
Outline: as §1

rice (Oryza sativa) = test: Test B flooded paddy: rice; details: Flood; 125 g ai/ha; applied to paddy water at 2-leaf stage; visually evaluated after 13 to 15 days
Outline: (§2)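 Each compound is applied to the floodwater of pots holding 2-leaf seedlings, water standing 3 cm over the soil throughout. Plants stay in a greenhouse 13 to 15 days before visual scoring against controls from 0 (no effect) to 100 (complete control).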

[4] = tested on: sedge, umbrella (small-flower umbrella sedge Cyperus difformis); test: Test B flooded paddy: sedge, umbrella; details: Flood; 125 g ai/ha; applied to paddy water at 2-leaf stage; visually evaluated after 13 to 15 days
Outline: as §2

[5] = tested on: barnyardgrass (Echinochloa crus-galli); test: Test B flooded paddy: barnyardgrass; details: Flood; 125 g ai/ha; applied to paddy water at 2-leaf stage; visually evaluated after 13 to 15 days
Outline: as §2

[6] = tested on: ryegrass, Italian (Italian ryegrass, Lolium multiflorum); test: Test C pre-/postemergence: ryegrass, Italian
Outline: (§3)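 Visual injury scored 0–100 (100 = complete control) against untreated controls after 13–15 greenhouse days. Surfactant-containing solvent formulations applied either to soil after sowing (loam/sand) or over 1- to 4-leaf plants, 2–18 cm tall.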

[7] = tested on: winter wheat (Triticum aestivum); test: Test C pre-/postemergence: winter wheat
Outline: as §3

[8] = tested on: lambsquarters (Chenopodium album); test: Test C pre-/postemergence: lambsquarters
Outline: as §3

[9] = tested on: pigweed (Amaranthus retroflexus); test: Test C pre-/postemergence: pigweed
Outline: as §3

soybean (Glycine max) = test: Test C pre-/postemergence: soybean
Outline: as §3

[10] = Postemergence, 125 g ai/ha, 0 to 100 scale, 0 is no effect, 100 is complete control
[11] = Postemergence, 500 g ai/ha, 0 to 100 scale, 0 is no effect, 100 is complete control
[12] = Preemergence, 125 g ai/ha, 0 to 100 scale where 0 is no effect and 100 is complete control
[13] = Preemergence, 500 g ai/ha, 0 to 100 scale (0 no effect, 100 complete control)
[14] = Postemergence, 31 g ai/ha, scale 0 to 100 (0 no effect, 100 complete control)
[15] = Postemergence, 62 g ai/ha, scale 0 to 100 (0 no effect, 100 complete control)
[16] = Postemergence, 125 g ai/ha, scale 0 to 100, 0 no effect, 100 complete control
[17] = Postemergence, 250 g ai/ha, scale 0 to 100 (0 no effect, 100 complete control)
[18] = Preemergence, 31 g ai/ha, scale 0 (no effect) to 100 (complete control)
[19] = Preemergence, 62 g ai/ha, scale of 0 to 100, 0 is no effect, 100 is complete control
[20] = Preemergence, 125 g ai/ha, scale 0 to 100, 0 no effect, 100 complete control
[21] = Preemergence, 250 g ai/ha, scale 0 to 100, 0 no effect, 100 complete control

## CCCc1nn(-c2ccc(F)cc2F)nc1Oc1ccnc(C(F)(F)F)c1 [Compound 179]
[1]; [10]
  Plant response rating, Barnyardgrass: 90
[1]; [11]
  Barnyardgrass plant response rating: 90
[1]; [12]
  Plant response rating, Barnyardgrass: 90
[1]; [13]
  Plant response rating, Barnyardgrass: 100
[2]; [10]
  Plant response rating, Pigweed: 100
[2]; [11]
  Pigweed plant response rating: 100
[2]; [12]
  Plant response rating, Pigweed: 100
[2]; [13]
  Plant response rating, Pigweed: 100
[3]; [10]
  Plant response rating, Wheat: 30
[3]; [11]
  Wheat plant response rating: 40
[3]; [12]
  Plant response rating, Wheat: 20
[3]; [13]
  Plant response rating, Wheat: 50
Rice (Oryza sativa)
  Plant response rating, Rice (0 to 100 scale, 0 is no effect, 100 is complete control): 35
[4]
  Plant response rating, Sedge, Umbrella (0 to 100 scale, 0 is no effect, 100 is complete control): 75
[5]
  Plant response rating, Barnyardgrass (0 to 100 scale, 0 is no effect, 100 is complete control): 0
[6]; [14]
  Plant response rating, Ryegrass, Italian: 10
[6]; [15]
  Plant response rating, Ryegrass, Italian: 15
[6]; [16]
  Plant response rating, Ryegrass, Italian: 25
[6]; [17]
  Plant response rating, Ryegrass, Italian: 40
[6]; [18]
  Plant response rating, Ryegrass, Italian: 45
[6]; [19]
  Plant response rating, Ryegrass, Italian: 95
[6]; [20]
  Plant response rating, Ryegrass, Italian: 95
[6]; [21]
  Plant response rating, Ryegrass, Italian: 95
[7]; [14]
  Plant response rating, Wheat: 5
[7]; [15]
  Plant response rating, Wheat: 10
[7]; [16]
  Plant response rating, Wheat: 15
[7]; [17]
  Plant response rating, Wheat: 15
[7]; [18]
  Plant response rating, Wheat: 5
[7]; [19]
  Plant response rating, Wheat: 15
[7]; [20]
  Plant response rating, Wheat: 50
[7]; [21]
  Plant response rating, Wheat: 55
[8]; [14]
  Plant response rating, Lambsquarters: 80
[8]; [15]
  Plant response rating, Lambsquarters: 80
[8]; [16]
  Plant response rating, Lambsquarters: 85
[8]; [17]
  Plant response rating, Lambsquarters: 90
[8]; [18]
  Plant response rating, Lambsquarters: 98
[8]; [19]
  Plant response rating, Lambsquarters: 98
[8]; [20]
  Plant response rating, Lambsquarters: 98
[8]; [21]
  Plant response rating, Lambsquarters: 100
[9]; [14]
  Plant response rating, Pigweed: 95
[9]; [15]
  Plant response rating, Pigweed: 98
[9]; [16]
  Plant response rating, Pigweed: 98
[9]; [17]
  Plant response rating, Pigweed: 100
[9]; [18]
  Plant response rating, Pigweed: 100
[9]; [19]
  Plant response rating, Pigweed: 100
[9]; [20]
  Plant response rating, Pigweed: 100
[9]; [21]
  Plant response rating, Pigweed: 100
Soybean (Glycine max); [14]
  Plant response rating, Soybean: 30
Soybean (Glycine max); [15]
  Plant response rating, Soybean: 35
Soybean (Glycine max); [16]
  Plant response rating, Soybean: 45
Soybean (Glycine max); [17]
  Plant response rating, Soybean: 45
Soybean (Glycine max); [18]
  Plant response rating, Soybean: 0
Soybean (Glycine max); [19]
  Plant response rating, Soybean: 10
Soybean (Glycine max); [20]
  Plant response rating, Soybean: 10
Soybean (Glycine max); [21]
  Plant response rating, Soybean: 25
